Laboratory results as given in patent US20210348124A1, “SEBACEOUS GLAND ORGANOIDS AND USE THEREOF” (TECHNION RESEARCH & DEVELOPMENT FOUNDATION LIMITED, priority 2018, published 2021).

What was measured:
Format in all cases: cell-based, mouse
DBL-treated organoids [1] = assay: Drug treatment of DBL-treated SG organoids (size, ORO, Ki67, cell size); conditions: for organoid size: then drug for three days
From the text: With a system that recapitulates important aspects of acne vulgaris, the extent that currently prescribed medications could affect its development was examined. Retinoids are derivatives of vitamin A, which serve as the first-line treatment for acne. Specifically, all-trans-Retinoic acid (ATRA; Tretinoin), formulated ATRA (Ret-Avit) and 13-cis RA (Isotrtinoin) are used worldwide. […] The differentiation program in the SG is a multi-step process. Cells prior to the onset or during early stage of differentiation express AR, which is known to reside upstream and lead to the expression of F[…]. […] Therefore, it was hypothesized that inhibition of c-Myc could serve as a beneficial treatment of acne vulgaris. For this aim, the 10058-F4 c-Myc inhibitor was administered to DBL-treated organoids and size, proliferation and differentiation were monitored.

[2] = system: Blimp1−YFP+-derived sebaceous gland organoids; assay: Real-time PCR of sebocyte differentiation markers in c-Myc inhibitor-treated SG organoids; conditions: RT-PCR, inhibitor for 4 days
Experimental: Organoid treatment with cMyc inhibitor 10058-F4 (50 Tocris Bioscience) or DMSO (as control) was performed for 4 days and renewed upon media change. Organoids were fixed in 4% PFA for 1 hour for immunofluorescence analysis or harvested for RNA extraction.
(§1) RNA extraction, reverse transcription and real-time PCR: RNA was isolated using Trizol (Sigma) and up to 2 μg of RNA were subjected to cDNA synthesis (Applied Biosystems). Real time PCR was carried out using the PerfeCTa SYBR Green FastMix (Quanta), with the following gene-specific primers: RpLO: […] (SEQ ID NO: 1) and ATCTGCTTGGAGCCCACAT (SEQ ID NO: 2); AR: […] (SEQ ID NO: 3) and […] (SEQ ID NO: 4); PPAR-gamma: […] (SEQ ID NO: 5) and […] (SEQ ID NO: 6); PPAR-beta: TTCCTTCCAGCAGCTGTG (SEQ ID NO: 7) and TCGCACGCGTGGACC (SEQ ID NO: 8); FASN: […] (SEQ ID NO: 9) and […] (SEQ ID NO: 10). Amplicon levels were analyzed in triplicate and quantitated relative to a standard curve comprising cDNA, and values normalized to levels of the housekeeping gene (Rpl0). Reactions were: 3 min at 95° C., then 40 cycles of 10 sec at 95° C. and 30 sec at 60° C. with addition of melt curve step: 10 sec at 95° C., and increments of 0.5° C. every 5 sec between 65° C. and 95° C.
This is in line with the reported role of c-Myc in regulating differentiation in the SG in vivo. […] Next, using Real time (RT)-PCR analysis, the levels of transcripts that are expressed in either SG differentiating or differentiated cells, which play a key role in this process were examined. Inhibition of c-Myc decreased the levels of all examined factors including Androgen Receptor (AR) and fatty acid synthase (FASN) (FIG. 4O).

DBL-treated organoids [3] = assay: RT-PCR of DBL-treated SG organoids after drug treatment; conditions: then drug
Experimental: as §1
The differentiation program in the SG is a multi-step process. Cells prior to the onset or during early stage of differentiation express AR, which is known to reside upstream and lead to the expression of FASN35.
Retinols, such as 13-cis RA, are known to have severe side-effects and concerns have been raised regarding the teratogenicity of these compounds. This highlights the immediate need for alternative treatments. […] Therefore, it was hypothesized that inhibition of c-Myc could serve as a beneficial treatment of acne vulgaris. For this aim, the 10058-F4 c-Myc inhibitor was administered to DBL-treated organoids and size, proliferation and differentiation were monitored.

[4] = system: Blimp1−YFP+-derived sebaceous gland organoids; assay: SG organoids treated with c-Myc inhibitor: size, cell size/number, proliferation, lipid staining
Experimental: For organoid generation a total of ˜1000 cells were mixed with 50 μl of Matrigel (BD Bioscience) and plated in 24-well plates. After polymerization of Matrigel, 500 μl of HFSC media containing growth factors; 20 ng ml-1 hFGF (Peprotech), 40 ng ml-1 mEGF (Peprotech), 500 ng ml-1 hR-spondin 1, 100 ng ml-1 mNoggin (Peprotech) and B-27 Supplement (50×) (Invitrogen)) was added. Organoid treatment with cMyc inhibitor 10058-F4 (50 Tocris Bioscience) or DMSO (as control) was performed for 4 days and renewed upon media change. Organoids were fixed in 4% PFA for 1 hour for immunofluorescence analysis or harvested for RNA extraction. Antibody staining was visualized using secondary antibodies conjugated to Alexa Fluor-488, Alexa Fluor-546, and Alexa Fluor-633. Analysis was performed on Zeiss LSM 880 confocal microscope. Oil-red-O (ORO) staining was performed by incubating samples in 0.18% ORO for 20 min and washing with PBS. Next, the effect of inhibiting c-Myc activity by administering the specific c-Myc inhibitor, 10058-F4 was monitored. […] Six-day old SG organoids were supplemented with the c-Myc inhibitor for 4 days. […] Since the effect on organoid size could result from either altered cell size or number both scenarios were examined. […] Whether the effect of c-Myc inhibition originates from an effect on cell proliferation and/or differentiation was examined next. Employing IF staining with two proliferative markers, Ki67 and MCM2, indicated a significant decline in Ki67+ (69%) and MCM2+ (72%) proliferative cells (FIG. 4J-L). […] This is in line with the reported role of c-Myc in regulating differentiation in the SG in vivo. […] Next, using Real time (RT)-PCR analysis, the levels of transcripts that are expressed in either SG differentiating or differentiated cells, which play a key role in this process were examined. Inhibition of c-Myc decreased the levels of all examined factors including Androgen Receptor (AR) and fatty acid synthase (FASN) (FIG. 4O).

SG organoids = assay: Acne vulgaris model: DHT, BRL, LIN administered to SG organoids (size, ORO, Ki67); conditions: administration to organoids (single agents for 7 days; combinations)
Experimental: Therefore, as a first step, the potent dihydrotestosterone (DHT) androgen, the PPAR-γ BRL-49653 (BRL) activator and linoleic acid (LIN) known to activate PPAR-B38 were administered to organoids.

SG organoid = SG organoid as model organ to test drugs (caspase-3 inhibitors, Tretinoin); conditions: for attenuation of SG organoid size: 100 uM, after 72 hours
Experimental: Organoids were generated as described herein and treated with two caspase-3 inhibitors (zDEVD-fmk at 100 uM and […] at 100 uM) to assess their effect on the SG. A known anti-acne drug, Tretinoin (10-100 uM) was also added as a positive control.

[5] = system: freshly isolated α6+; ScaI−; Blimp1−YFP+ cells; assay: Organoid generation from primary cells directly seeded in Matrigel with ROCK inhibitor; conditions: cultures supplemented with ROCK inhibitor and GFs
From the text: It was next examined if these Blimp1+ cell-derived organoids could be generated by isolating primary α6+; ScaI−; Blimp1−YFP+ cells and directly seeding them into Matrigel without a pre-culturing phase. […] Thus, these cultures were supplemented with a ROCK inhibitor (Y27632), which prevents cell-cell interaction-dependent anoikis.

[6] = IF staining, inhibitor for 4 days
[7] = six-day old SG organoids, inhibitor for 4 days

**Q.** `CC1=C(/C=C/C(C)=C/C=C/C(C)=C\C(=O)O)C(C)(C)CCC1` [13-cis RA, 13-cis-Retinoic acid] was tested. Which “number of ORO+ cells” value (DBL-treated organoids [1]; then drug) did it give?
**A.** heightened number

**Q.** What about the organoid size (DBL-treated organoids [1]) of the same compound?
**A.** significant decrease

**Q.** How did the “Androgen Receptor (AR) transcript level” value [2] turn out when `CCc1ccc(C=C2SC(=S)NC2=O)cc1` [10058-F4, 5-[(4-Ethylphenyl)methylene]-2-thioxo-4-thiazolidinone] was run?
**A.** decreased

**Q.** What about the PPAR-β transcript level [2] of the same compound?
**A.** significantly attenuated

**Q.** And the PPAR-γ transcript level [2]?
**A.** significantly attenuated

**Q.** And the “fatty acid synthase (FASN) transcript level” value [2]?
**A.** decreased

**Q.** And the “expression levels of lipid synthesis genes” value (DBL-treated organoids [3])?
**A.** significantly lower

**Q.** What about the “mRNA level of Cyclin D1” value (DBL-treated organoids [3]) of the same compound?
**A.** significant decrease

**Q.** What about the “mRNA level of c-Myc” value (DBL-treated organoids [3]) of the same compound?
**A.** significant decrease

**Q.** And the “decline in Ki67+ proliferative cells” value [4, 6]?
**A.** 69%

**Q.** And the “decline in MCM2+ proliferative cells” value [4, 6]?
**A.** 72%

**Q.** And the “lipid levels (ORO dye staining)” value ([4]; inhibitor for 4 days)?
**A.** significant decrease

**Q.** What about the “decrease in organoid size” value ([4]; six-day old SG organoids, c-Myc inhibitor for 4 days, vs DMSO control) of the same compound?
**A.** ~40%

**Q.** And the “decline in cell diameter, cells in the inner compartment” value [4, 7]?
**A.** ~40%

**Q.** What about the “diameter of individual cells in the outer proliferating layer of the organoid” value [4, 7] of the same compound?
**A.** modest size decrease

**Q.** What about the “localization of c-Myc” value [4, 7] of the same compound?
**A.** did not affect

**Q.** And the “number of cells in the outer ring of the organoids” value [4, 7]?
**A.** decreased

**Q.** What about the “decrease in the number of Ki67+ cells” value (DBL-treated organoids [1]; then drug) of the same compound?
**A.** more than 80%

**Q.** And the “number of ORO+ cells” value (DBL-treated organoids [1]; then drug)?
**A.** significant decrease

**Q.** And the “size of individual inner cells” value (DBL-treated organoids [1]; then drug)?
**A.** decrease

**Q.** What about the organoid size (DBL-treated organoids [1]) of the same compound?
**A.** significant decrease

**Q.** For `C[C@]12CCC(=O)C[C@@H]1CC[C@@H]1[C@@H]2CC[C@]2(C)[C@@H](O)CC[C@@H]12` [DHT, dihydrotestosterone], which “size of individual SG organoids” value (SG organoids) is on record?
**A.** significantly increased

**Q.** With `CC(=O)OCCN1C(=O)c2c(C)nc3ccc(S(=O)(=O)N4CCOCC4)cc3c2C1=O` [Ivachtin] as the compound, how does the “attenuation of SG organoid size” value (SG organoid) read?
**A.** about 30%

**Q.** `CCCCC/C=C\C/C=C\CCCCCCCC(=O)O` [LIN, linoleic acid] was tested. Which “size of individual SG organoids” value (SG organoids) did it give?
**A.** significantly increased

**Q.** Which “number of ORO+ cells” value (DBL-treated organoids [1]; then drug) does the source give for `CC1=C(/C=C/C(C)=C/C=C/C(C)=C/C(=O)O)C(C)(C)CCC1` [Tretinoin, all-trans-Retinoic acid] here?
**A.** heightened number

**Q.** And the organoid size (DBL-treated organoids [1])?
**A.** significant decrease

**Q.** And the “reduction of SG organoid size compared with the caspase-3 inhibitors” value (SG organoid; 10-100 uM, positive control)?
**A.** very similar

**Q.** With `C[C@@H](N)[C@H]1CC[C@H](C(=O)Nc2ccncc2)CC1` [Y27632] as the compound, how does the “organoid generation from primary cells seeded into Matrigel without pre-culturing” value [5] read?
**A.** able to give rise to organoids, although at a lower efficiency

**Q.** How did the “attenuation of SG organoid size” value (SG organoid) turn out when `COC(=O)CC[C@H](NC(=O)[C@H](CC(=O)OC)NC(=O)OCc1ccccc1)C(=O)N[C@H](C(=O)N[C@@H](CC(=O)OC)C(=O)CF)C(C)C` [zDEVD-fmk] was run?
**A.** about 30%

**Q.** And the “cells positive for Ki67” value (SG organoid; caspase-3 inhibitor treatment)?
**A.** greatly reduced

**Q.** And the “cells positive for MCM2” value (SG organoid; caspase-3 inhibitor treatment)?
**A.** greatly reduced
